From patent US20230146795A1, “ENHANCEMENT OF ANTI-TUMOR ACTIVITY OF SHP2 INHIBITOR PYRIMIDINONE IN COMBINATION WITH NOVEL CANCER MEDICINES IN CANCERS” (TAIHO PHARMACEUTICAL CO., LTD., priority 2020, published 2023)

Legend:
Type in all cases: cell-based
NCI-H358 = test: Anti-proliferation assay (CellTiter-Glo 2.0), combination index, NCI-H358; conditions: for Description (combinatory effect by CI): Compound 1:combination drug molar ratio 1:9
Protocol: (§1) Cell lines were obtained from ATCC or Health Science Research Resources Bank.
(§2) Each cell lines were collected by ordinary method, then suspended in indicated medium containing 10% fetal bovine serum in table 3. The number of cells seeded per well was set to 500 cells/20 μL. […] The concentration of each anti-cancer reagents set to 8 concentrations including 0 nM. After adding the medicine to the cells, the cells were further incubated at 37° C. for 3 days under 5% CO2. Cell survival rates were calculated by adding 20 μL of CellTiter-Glo(registered trademark) 2. 0 (Promega) solution to each well, incubating the cells at room temperature for 10 minutes, and then measuring the chemiluminescence intensity of each well using a plate reader (ARVO).
(§3) A combination index (CI) value at each combined concentration of the medicines was determined.

MKN45 = test: Anti-proliferation assay (CellTiter-Glo 2.0), combination index, MKN45
Protocol: as §1, §2, §3

RT4 = test: Anti-proliferation assay (CellTiter-Glo 2.0), combination index, RT4
Protocol: as §1, §2, §3

MV-4-11 = test: Anti-proliferation assay (CellTiter-Glo 2.0), combination index, MV-4-11
Protocol: as §1
384 well culture plate (781086, Greiner Bio-One International) was used for cell survival rate measurement assay. Each cell lines were collected by ordinary method, then suspended in indicated medium containing 10% fetal bovine serum in table 3. The number of cells seeded per well was set to 500 cells/20 μL. After incubation at 37° C. for 24 hours under 5% CO2, Compound 1 and additional compound having an antitumor effect or a vehicle (DMSO) was added to each well by using D300e Digital Dispenser (Tecan). The concentration of Compound 1 was set to 10 concentrations. The concentration of each anti-cancer reagents set to 8 concentrations including 0 nM. After adding the medicine to the cells, the cells were further incubated at 37° C. for 3 days under 5% CO2. Cell survival rates were calculated by adding 20 μL of CellTiter-Glo(registered trademark) 2. 0 (Promega) solution to each well, incubating the cells at room temperature for 10 minutes, and then measuring the chemiluminescence intensity of each well using a plate reader (ARVO).
as §3

[1] = Compound 1 41.2 + combination drug 370 nmol/L (1:9)
[2] = Compound 1 123 + combination drug 1110 nmol/L (1:9)
[3] = Compound 1 370 + combination drug 3330 nmol/L (1:9)
[4] = Compound 1 1110 + combination drug 10000 nmol/L (1:9)
[5] = Compound 1 13.7 + combination drug 370 nmol/L (1:27)
[6] = Compound 1 41.2 + combination drug 1110 nmol/L (1:27)
[7] = Compound 1 123 + combination drug 3330 nmol/L (1:27)
[8] = Compound 1 370 + combination drug 10000 nmol/L (1:27)
[9] = Compound 1 1.52 + combination drug 123 nmol/L (1:81)
[10] = Compound 1 13.7 + combination drug 1110 nmol/L (1:81)
[11] = Compound 1 41.2 + combination drug 3330 nmol/L (1:81)
[12] = Compound 1 123 + combination drug 10000 nmol/L (1:81)
[13] = Compound 1 41.2 + combination drug 13.7 nmol/L (1:0.3)
[14] = Compound 1 370 + combination drug 123 nmol/L (1:0.3)
[15] = Compound 1 1110 + combination drug 370 nmol/L (1:0.3)
[16] = Compound 1 3330 + combination drug 1110 nmol/L (1:0.3)
[17] = Compound 1 3330 nmol/L + Doxorubicin 370 nmol/L, molar ratio 1:0.1
[18] = Compound 1 10000 nmol/L + Doxorubicin 1110 nmol/L, molar ratio 1:0.1
[19] = Compound 1 123 nmol/L + Doxorubicin 123 nmol/L, molar ratio 1:1
[20] = Compound 1 370 nmol/L + Doxorubicin 370 nmol/L, molar ratio 1:1
[21] = Compound 1 1110 nmol/L + Doxorubicin 1110 nmol/L, molar ratio 1:1
[22] = Compound 1 41.2 nmol/L + Doxorubicin 13.7 nmol/L, molar ratio 1:0.3
[23] = Compound 1 123 nmol/L + Doxorubicin 41.2 nmol/L, molar ratio 1:0.3
[24] = Compound 1 370 nmol/L + Doxorubicin 123 nmol/L, molar ratio 1:0.3
[25] = Compound 1 3330 nmol/L + Doxorubicin 1110 nmol/L, molar ratio 1:0.3
[26] = Compound 1 10000 nmol/L + Doxorubicin 3330 nmol/L, molar ratio 1:0.3
[27] = Compound 1 123 + combination drug 123 nmol/L (1:1)
[28] = Compound 1 370 + combination drug 370 nmol/L (1:1)
[29] = Compound 1 1110 + combination drug 1110 nmol/L (1:1)
[30] = Compound 1 3330 + combination drug 3330 nmol/L (1:1)
[31] = Compound 1 10000 + combination drug 10000 nmol/L (1:1)
[32] = Compound 1 123 + combination drug 370 nmol/L (1:3)
[33] = Compound 1 370 + combination drug 1110 nmol/L (1:3)
[34] = Compound 1 13.7 + combination drug 123 nmol/L (1:9)
[35] = Compound 1:combination drug molar ratio 1:9
[36] = Compound 1 4.57 + combination drug 41.2 nmol/L (1:9)
[37] = Compound 1 4.57 + combination drug 370 nmol/L (1:81)
[38] = Compound 1:combination drug molar ratio 1:81

Cc1nc(NC(=O)N2CCC[C@H]2C(N)=O)sc1-c1ccnc(C(C)(C)C(F)(F)F)c1 [Alpelisib]
CI (NCI-H358; [1]): 0.451
Fa (NCI-H358; [1]): 0.1532
CI (NCI-H358; [2]): 0.356
Fa (NCI-H358; [2]): 0.4353
CI (NCI-H358; [3]): 0.589
Fa (NCI-H358; [3]): 0.5959
CI (NCI-H358; [4]): 0.844
Fa (NCI-H358; [4]): 0.7671
Description (combinatory effect by CI) (NCI-H358): Synergy (0.3-0.7)
CI (MKN45; [5]): 0.700
Fa (MKN45; [5]): 0.1253
CI (MKN45; [6]): 0.426
Fa (MKN45; [6]): 0.4108
CI (MKN45; [7]): 0.655
Fa (MKN45; [7]): 0.5920
CI (MKN45; [8]): 0.772
Fa (MKN45; [8]): 0.8141
Description (combinatory effect by CI) (MKN45; Compound 1:combination drug molar ratio 1:27): Synergy (0.3-0.7)
CI (RT4; [9]): 0.255
Fa (RT4; [9]): 0.0658
CI (RT4; [10]): 0.247
Fa (RT4; [10]): 0.2690
CI (RT4; [11]): 0.318
Fa (RT4; [11]): 0.4427
CI (RT4; [12]): 0.528
Fa (RT4; [12]): 0.5855

CNC(=O)c1cc(Oc2ccc(NC(=O)Nc3ccc(Cl)c(C(F)(F)F)c3)cc2)ccn1 [Sorafenib]
CI (MV-4-11; [13]): 0.116
Fa (MV-4-11; [13]): 0.9439
Fa (MV-4-11; Compound 1 123 + combination drug 41.2 nmol/L (1:0.3)): 0.9578
CI (MV-4-11; [14]): 0.301
Fa (MV-4-11; [14]): 0.9643
CI (MV-4-11; [15]): 0.759
Fa (MV-4-11; [15]): 0.9665
CI (MV-4-11; [16]): 0.865
Fa (MV-4-11; [16]): 0.9766

COc1cccc2c1C(=O)c1c(O)c3c(c(O)c1C2=O)C[C@@](O)(C(=O)CO)C[C@@H]3O[C@H]1C[C@H](N)[C@H](O)[C@H](C)O1 [Doxorubicin]
CI (NCI-H358; [17]): 0.845
Fa (NCI-H358; [17]): 0.7275
CI (NCI-H358; [18]): 0.249
Fa (NCI-H358; [18]): 0.9706
CI (MKN45; [19]): 0.596
Fa (MKN45; [19]): 0.5818
CI (MKN45; [20]): 0.267
Fa (MKN45; [20]): 0.8738
CI (MKN45; [21]): 0.361
Fa (MKN45; [21]): 0.9317
CI (RT4; [22]): 0.866
Fa (RT4; [22]): 0.2952
CI (RT4; [23]): 0.403
Fa (RT4; [23]): 0.5056
CI (RT4; [24]): 0.554
Fa (RT4; [24]): 0.6537
CI (RT4; [25]): 0.191
Fa (RT4; [25]): 0.9964
CI (RT4; [26]): 0.063
Fa (RT4; [26]): 0.9999

CC(C)Nc1cc(-c2c[nH]c(C(=O)N[C@H](CO)c3cccc(Cl)c3)c2)c(Cl)cn1 [Ulixertinib]
CI (NCI-H358; [27]): 0.709
Fa (NCI-H358; [27]): 0.2823
CI (NCI-H358; [28]): 0.379
Fa (NCI-H358; [28]): 0.5072
CI (NCI-H358; [29]): 0.237
Fa (NCI-H358; [29]): 0.7490
CI (NCI-H358; [30]): 0.260
Fa (NCI-H358; [30]): 0.8778
CI (NCI-H358; [31]): 0.284
Fa (NCI-H358; [31]): 0.9536
CI (MKN45; [32]): 0.483
Fa (MKN45; [32]): 0.5887
CI (MKN45; [33]): 0.644
Fa (MKN45; [33]): 0.7816
Description (combinatory effect by CI) (MKN45; Compound 1:combination drug molar ratio 1:3): Synergy (0.3-0.7)
CI (RT4; [34]): 0.759
Fa (RT4; [34]): 0.1321
CI (RT4; [1]): 0.310
Fa (RT4; [1]): 0.3352
CI (RT4; [2]): 0.330
Fa (RT4; [2]): 0.4921
CI (RT4; [3]): 0.622
Fa (RT4; [3]): 0.5670
Description (combinatory effect by CI) (RT4; [35]): Synergy (0.3-0.7)

C#Cc1cccc(Nc2ncnc3cc(OCCOC)c(OCCOC)cc23)c1 [Erlotinib]
CI (NCI-H358; [36]): 0.617
Fa (NCI-H358; [36]): 0.1600
CI (NCI-H358; [34]): 0.145
Fa (NCI-H358; [34]): 0.3804
CI (NCI-H358; [1]): 0.102
Fa (NCI-H358; [1]): 0.5542
CI (NCI-H358; [2]): 0.206
Fa (NCI-H358; [2]): 0.6026
CI (NCI-H358; [3]): 0.256
Fa (NCI-H358; [3]): 0.7034
CI (NCI-H358; [4]): 0.225
Fa (NCI-H358; [4]): 0.8178
CI (RT4; [37]): 0.421
Fa (RT4; [37]): 0.2843
CI (RT4; [10]): 0.464
Fa (RT4; [10]): 0.4079
CI (RT4; [11]): 0.441
Fa (RT4; [11]): 0.5677
CI (RT4; [12]): 0.308
Fa (RT4; [12]): 0.7514
Description (combinatory effect by CI) (RT4; [38]): Synergy (0.3-0.7)
CI (MV-4-11; [9]): 0.808
Fa (MV-4-11; [9]): 0.0915
CI (MV-4-11; [37]): 0.880
Fa (MV-4-11; [37]): 0.2460
CI (MV-4-11; [10]): 0.610
Fa (MV-4-11; [10]): 0.6556
CI (MV-4-11; [11]): 0.632
Fa (MV-4-11; [11]): 0.8799
CI (MV-4-11; [12]): 0.962
Fa (MV-4-11; [12]): 0.9472
Description (combinatory effect by CI) (MV-4-11; [38]): Synergy (0.3-0.7)

COc1cc2c(Oc3ccc4[nH]c(C)cc4c3F)ccnc2cc1OCC1(N)CC1 [Anlotinib]
CI (NCI-H358; [1]): 0.557
Fa (NCI-H358; [1]): 0.3217
CI (NCI-H358; [2]): 0.416
Fa (NCI-H358; [2]): 0.5609
CI (NCI-H358; [3]): 0.390
Fa (NCI-H358; [3]): 0.7902
CI (NCI-H358; [4]): 0.488
Fa (NCI-H358; [4]): 0.9031
Description (combinatory effect by CI) (NCI-H358): Synergy (0.3-0.7)
CI (MKN45; [7]): 0.755
Fa (MKN45; [7]): 0.7514
CI (RT4; [34]): 0.501
Fa (RT4; [34]): 0.3362
CI (RT4; [1]): 0.444
Fa (RT4; [1]): 0.5003
CI (RT4; [2]): 0.387
Fa (RT4; [2]): 0.7040
CI (RT4; [3]): 0.326
Fa (RT4; [3]): 0.8765
CI (RT4; [4]): 0.316
Fa (RT4; [4]): 0.9539
Description (combinatory effect by CI) (RT4; [35]): Synergy (0.3-0.7)
